# Measured values taken from US20030032612A1 (priority 1997, published 2003).
# Values joined by “and” are separate entries in the source; they are usually repeats but may differ in a detail not shown here. Identical values can stand only once.
# Columns and labels:
# Type in all cases: cell-based, E. coli
# AG 102 mar mutant = experiment: Gradient plate assay, MIC of antibiotics in AG 102 with plasmids; settings: Escherichia coli
# Description: To establish further the inhibitory efficacy of antisense marA sequences, KMN23 (the same DNA vector described above, containing both the marR and the marA genes cloned in the antisense direction) was also expressed in the presence of various antibiotics (tetracycline (Tet), chloramphenicol (Cml), ampicillin (Amp) and rifampicin (Rif). The effect of KMN23 was assessed by measuring cell growth inhibition by the gradient plate method as described in Example 9. The results are shown in TABLE 3.
# (§1) Bacterial susceptibility to tetracycline hydrochloride, chloramphenicol, ampicillin, kanamycin, rifampin, nalidixic acid and norfloxacin was assayed by the gradient plate method. (Microbiology: Including Immunology and Molecular Genetics (3rd ed.)(Davis et al. eds.(1980)J. P. Lippincott Co., Philadelphia, Pa.).
# [1] = system: ML308-225-C2 (Mar mutant); experiment: Augmentation of bactericidal activity of norfloxacin by oligonucleotides, colony counts
# ML308-C2 = experiment: MIC on antibiotic gradient plates in Mar mutant ML308-C2; settings: Escherichia coli, read-out: MIC of norfloxacin
# Description: Antibiotic resistant mutants of ML308-225 (Rahman et al. (1991) Antisense Res. Dev. 1:319-327) were grown and maintained at 30° C. in LB broth. These mutants were selected by spreading washed overnight cultures onto a LB agar plate containing chloramphenicol (5 μg/ml, Sigma, St. Louis, Mo.) and incubated at 30° C for 48-72 hours. Single colonies appearing after 48 hours were picked for further study.
# One mutant showing increased minimal inhibitory concentrations (hereinafter referred to as MIC) to tetracycline, chloramphenicol, ampicillin, nalidixic acid, and norfloxacin was selected and designated ML308-C2. Sequencing confirmed a C® T substitution in amino acid 117 of marR, which results in a truncated MarR protein. […] Northern analysis using a marA DNA probe confirmed that ML308-C2 over expresses marA and was a Mar mutant (unpublished data).
# as §1
structure (smiles),measurement,setting,value
"CC1(C)S[C@@H]2[C@H](NC(=O)[C@H](N)c3ccccc3)C(=O)N2[C@H]1C(=O)O [Amp, ampicillin]",MIC,AG 102 mar mutant,17.7 mg/L
"O=C(N[C@H](CO)[C@H](O)c1ccc([N+](=O)[O-])cc1)C(Cl)Cl [Cml, chloramphenicol]",MIC,AG 102 mar mutant,34.2 mg/L
"CCn1cc(C(=O)O)c(=O)c2cc(F)c(N3CCNCC3)cc21 [Norfloxacin, norfloxacin]",activity at 0.5 µg/mL,"[1]; Escherichia coli, norfloxacin 0.5 µg/mL alone, 1 hour, Table 5, read-out: % OF CONTROL (untreated cells)",65%
same,% OF CONTROL CELLS,"[1]; norfloxacin 0.5 μg/ml alone, oligo 1284 0 μM, duplicate experiments",71% and 57%
same,MIC,ML308-C2,0.5 mg/L
"CO[C@H]1/C=C/O[C@@]2(C)Oc3c(C)c(O)c4c(O)c(c(/C=N/N5CCN(C)CC5)c(O)c4c3C2=O)NC(=O)/C(C)=C\C=C\[C@H](C)[C@H](O)[C@@H](C)[C@@H](O)[C@@H](C)[C@H](OC(C)=O)[C@@H]1C [Rif, rifampicin]",MIC,AG 102 mar mutant,8.8 mg/L
"CN(C)[C@@H]1C(O)=C(C(N)=O)C(=O)[C@@]2(O)C(O)=C3C(=O)c4c(O)cccc4[C@@](C)(O)[C@H]3C[C@@H]12 [Tet, tetracycline]",MIC,AG 102 mar mutant,12.5 mg/L
